In patent publication US20010051630A1, “Use of hydroxylamine derivatives, and method and preparations for increasing the tolerance of field crops against weather stresses” (priority 1997, published 2001):
Marks after values point to notes of the source that are not given here.

Legend:
[1] = system: Mo 17 inbred maize line; test: CSVT (Complex Stressing Vigour Test), seeds soaked in active agent, Mo 17 maize; assay type: in vivo; details: seeds soaked in 10 mg/l active agent, * = significant vs control P < 0.05
Experimental: (§1) In this experiment the tolerance of maize, soybean and pepper seeds treated with the active agent against cold was tested. This test imposed temperature and oxygen deficiency stresses on the seeds and was carried out according to Barla-Szabó and Dolinka CSVT (Complex Stressing Vigour Test). For a single test, two hundred seeds were soaked for 48 hours at 25° C. and another 48 hours at 5° C in 150 ml distilled water containing the active agent in 10 mg/l concentration. Following the 96 hours of soaking, the seeds were further germinated between rolled wet paper for 96 hours at 25° C. There were 25 seeds in each roll, the rolls were placed vertically into containers and covered with a plastic bag in order to reduce evaporation. During the whole procedure the seeds were kept in darkness. At the end of the experiment the number of normally developing and ungerminated seeds were recorded. The length of the normal seedlings was measured and the average length of the five longest seedlings was calculated. Seedlings longer than 0.33 times the average length of the five longest seedlings were considered to be of high vigour, and low vigour seedlings were shorter than this length.

[2] = system: maize of high chilling tolerance (HT) population; test: CSVT, maize population of high chilling tolerance (HT); assay type: in vivo
Experimental: as §1, with “darkness.” for “darkness. At the end of the experiment the number of normally developing and ungerminated seeds were recorded. The length of the normal seedlings was measured and the average length of the five longest seedlings was calculated. Seedlings longer than 0.33 times the average length of the five longest seedlings were considered to be of high vigour, and low vigour seedlings were shorter than this length.”
(§2) At the end of the experiment the number of normally developing and ungerminated seeds were recorded. The length of the normal seedlings was measured and the average length of the five longest seedlings was calculated. Seedlings longer than 0.33 times the average length of the five longest seedlings were considered to be of high vigour, and low vigour seedlings were shorter than this length.
(§3) In the case of a further experiment with maize of low chilling tolerance (LT) and high chilling tolerance (HT) populations [Ref: P. Landi, E. Frascaroli, A. Lovato; EUPHYTICA 64 21-29 (1992)], the following positive effects were found (Table 3.).

[3] = system: maize of low chilling tolerance (LT) population; test: CSVT, maize population of low chilling tolerance (LT); assay type: in vivo
Experimental: as §1, with “darkness.” for “darkness. At the end of the experiment the number of normally developing and ungerminated seeds were recorded. The length of the normal seedlings was measured and the average length of the five longest seedlings was calculated. Seedlings longer than 0.33 times the average length of the five longest seedlings were considered to be of high vigour, and low vigour seedlings were shorter than this length.”
as §2, §3

[4] = system: McCall soybeans; test: CSVT with PVA-pearled McCall soybeans, relative length; assay type: in vivo, soybean; details: 2.5 mg in 1 ml 2.5% PVA per 100 seeds
Experimental: as §1, with “darkness.” for “darkness. At the end of the experiment the number of normally developing and ungerminated seeds were recorded. The length of the normal seedlings was measured and the average length of the five longest seedlings was calculated. Seedlings longer than 0.33 times the average length of the five longest seedlings were considered to be of high vigour, and low vigour seedlings were shorter than this length.”
In a further CSVT experiment also using McCall soybeans, polyvinylalcohol (PVA) was applied for pearling the seeds. The 2.5 mg doses of the active agents were dissolved in 1 ml of 2.5% PVA solution, and this quantity was applied to 100 pieces of seeds. The improvement of the chilling tolerance is observed by the significant elongation of the germ and the roots.

[5] = system: Mo 17 maize inbred line; test: Chilling tolerance of maize in a gradient chamber; assay type: in vivo
Experimental: The experiment was performed using the Mo 17 maize inbred line. The seeds were coated with a 2% solution of the examined compound dissolved in 2 ml polyvinylalcohol before germination, where the above quantity of solution is applied for 100 seeds. The seeds were germinated for 3 days wrapped in wet filter paper, they were sown and then cultivated in gradient chamber for 6 weeks. In the gradient chamber, the temperature was maintained on a scale between 18 and 12° C., with differences of 1° C. This was followed by a one week regeneration at 23/20° C. temperature.
In the experiment, the length of the plants was measured 16, 31 and 43 days after the sowing, and at the end of the experiment the fresh weight of the plants was measured. The experiment was performed on 4 plants at each temperature and by each treatment.

[6] = system: soybean cv. Bólyi 44; test: Field soybean cultivation, yield; assay type: in vivo; details: for Weight of the crop (kg/m^2): seeds pearled with 1 mg active agent in 1 ml 5% PVA per 100 seeds; for Improvement compared to the control (%): weight of the crop
Experimental: The experiment was performed using soybean cv. Bólyi 44. Before sowing, the seeds were treated with Rhyzobium Japonicum nitrogen-binding bacterium, which forms a root nodule providing 50-70% of the nitrogen demand of the plant.
The examined compounds were applied by pearling the seeds; 1 ml of pearling agent containing 1 mg of active agent in a 5% aqueous PVA solution was used for 100 seeds.
The plants were sown after soil preparation in the autumn, using a crop rotation system, 3-5 cm deep in the ground, with a 45-50 cm row distance, a 5 cm plant distance and 450,000-500,000 plant/ha density. The date of sowing was Apr. 15, 1997. During the development of the plant, the usual cultivation procedures were followed and the usual pesticides were used. The harvest took place in September-October, with the water content of the grains being between 16-18%.

[7] = system: HMv09 inbred maize line; test: CSVT, seeds soaked in active agent, HMv09 maize; assay type: in vivo; details: seeds soaked in 10 mg/l active agent
Experimental: as §1

[8] = system: Seaway bean cultivar; test: Drought tolerance of beans, part a (5 days hardening); assay type: in vivo; details: 7 days without water, one week regeneration
Source text: Based on the experiences of our preliminary experiments, the plants were hardened before the application of the active agent by withholding the water for a few days, until the first signs of withering appeared. Then the plants were watered and the active agent was either dissolved in the water, or sprayed to the plants directly. Afterwards, the plants were subjected to different periods of drought according to the given experiment, watered again, and after a week-long regeneration period, the survival ratio was determined.
a) Seaway bean cultivar was hardened for 5 days by withholding the water. Afterwards the plantlets were watered for two days normally. During this time, a 10 mg/liter and 100 mg/liter concentration solution of the active agent was applied two times a day dissolved in water or by direct spraying. Then the water was withheld for 7 days, and after a week-long regeneration period, the survival ratio was determined.

CCCCCCCCCCCCCCCC(=O)OC(CONC(=N)c1cccnc1)CN1CCCCC1.Cl (stereo not shown) [Compound 2, N-[2-palmitoyloxy-3-(1-piperidinyl)propoxy]-3-pyridinecarboximidamide Monohydrochloride]
Ratio of high vigour plants (%) [1]: 47* % | Ratio of high vigour plants %, HT [2]: 92* % | Ratio of high vigour plants %, LT [3]: 86* % | Relative length (control = 100), germ [4]: 133 | Relative length (control = 100), root [4]: 150

Cl.O=[N+]([O-])c1ccccc1C(Cl)=NOCC(O)CN1CCCCC1 (stereo not shown) [Compound 4, N-[2-hydroxy-3-(1-piperidinyl)propoxy]-2′-nitro-benzenecarboximidoyl Chloride Monohydrochloride]
Ratio of high vigour plants (%) [1]: 32* % | Ratio of high vigour plants %, HT [2]: 96* % | Ratio of high vigour plants %, LT [3]: 92* % | Relative length (control = 100), germ [4]: 116 | Relative length (control = 100), root [4]: 135 | Length (cm) ([5]; 12° C., 16 days): 5.8 cm | Length (cm) ([5]; 12° C., 31 days): 11.3 cm | FW (g), fresh weight ([5]; 12° C., 43 days): 1.5 g | Length (cm) ([5]; 12° C., 43 days): 20.1 cm | Length (cm) ([5]; 13° C., 16 days): 7.4 cm | Length (cm) ([5]; 13° C., 31 days): 13.1 cm | FW (g), fresh weight ([5]; 13° C., 43 days): 2.1 g | Length (cm) ([5]; 13° C., 43 days): 23.8 cm | Length (cm) ([5]; 14° C., 16 days): 9.7 cm | Length (cm) ([5]; 14° C., 31 days): 17.2 cm | FW (g), fresh weight ([5]; 14° C., 43 days): 2.9 g | Length (cm) ([5]; 14° C., 43 days): 25.1 cm | Length (cm) ([5]; 15° C., 16 days): 10.2 cm | Length (cm) ([5]; 15° C., 31 days): 21.3 cm | FW (g), fresh weight ([5]; 15° C., 43 days): 4.4 g | Length (cm) ([5]; 15° C., 43 days): 32.3 cm | Length (cm) ([5]; 16° C., 16 days): 15.4 cm | Length (cm) ([5]; 16° C., 31 days): 26.8 cm | FW (g), fresh weight ([5]; 16° C., 43 days): 5.0 g | Length (cm) ([5]; 16° C., 43 days): 34.5 cm | Length (cm) ([5]; 17° C., 16 days): 19.7 cm | Length (cm) ([5]; 17° C., 31 days): 31.2 cm | FW (g), fresh weight ([5]; 17° C., 43 days): 6.6 g | Length (cm) ([5]; 17° C., 43 days): 37.3 cm | Length (cm) ([5]; 18° C., 16 days): 15.0 cm | Length (cm) ([5]; 18° C., 31 days): 28.4 cm | FW (g), fresh weight ([5]; 18° C., 43 days): 6.2 g | Length (cm) ([5]; 18° C., 43 days): 38.0 cm | Weight of the crop (kg/m^2) [6]: 0.50 kg/m^2 | Improvement compared to the control (%) [6]: 11.1%

CC(C)(C)NCC(O)CONC(=Nc1ccccc1)c1ccccc1.Cl (stereo not shown) [Compound 5, N-[[3-(1,1-dimethylethyl)-amino]-2-hydroxypropoxy]-N′-phenyl-benzamidine hydrochloride]
Ratio of high vigour plants (%) [1]: 35* % | Ratio of high vigour plants (%) [7]: 57* % | Relative length (control = 100), germ [4]: 127 | Relative length (control = 100), root [4]: 152 | survival (%), Watering (10 mg/l) [8]: 25* % | survival (%), Watering (100 mg/l) [8]: 36* % | Length (cm) ([5]; 12° C., 16 days): 4.5 cm | Length (cm) ([5]; 12° C., 31 days): 10.9 cm | FW (g), fresh weight ([5]; 12° C., 43 days): 2.0 g | Length (cm) ([5]; 12° C., 43 days): 25.5 cm | Length (cm) ([5]; 13° C., 16 days): 4.7 cm | Length (cm) ([5]; 13° C., 31 days): 10.0 cm | FW (g), fresh weight ([5]; 13° C., 43 days): 1.1 g | Length (cm) ([5]; 13° C., 43 days): 18.5 cm | Length (cm) ([5]; 14° C., 16 days): 5.8 cm | Length (cm) ([5]; 14° C., 31 days): 11.6 cm | FW (g), fresh weight ([5]; 14° C., 43 days): 1.3 g | Length (cm) ([5]; 14° C., 43 days): 20.3 cm | Length (cm) ([5]; 15° C., 16 days): 9.5 cm | Length (cm) ([5]; 15° C., 31 days): 22.2 cm | FW (g), fresh weight ([5]; 15° C., 43 days): 5.4 g | Length (cm) ([5]; 15° C., 43 days): 34.0 cm | Length (cm) ([5]; 16° C., 16 days): 12.4 cm | Length (cm) ([5]; 16° C., 31 days): 26.4 cm | FW (g), fresh weight ([5]; 16° C., 43 days): 7.7 g | Length (cm) ([5]; 16° C., 43 days): 42.3 cm | Length (cm) ([5]; 17° C., 16 days): 17.8 cm | Length (cm) ([5]; 17° C., 31 days): 29.9 cm | FW (g), fresh weight ([5]; 17° C., 43 days): 9.7 g | Length (cm) ([5]; 17° C., 43 days): 44.3 cm | Length (cm) ([5]; 18° C., 16 days): 14.6 cm | Length (cm) ([5]; 18° C., 31 days): 25.0 cm | FW (g), fresh weight ([5]; 18° C., 43 days): 7.6 g | Length (cm) ([5]; 18° C., 43 days): 39.0 cm | Weight of the crop (kg/m^2) [6]: 0.52 kg/m^2 | Improvement compared to the control (%) [6]: 15.5%

CNC(=NOCCCN1CCCCC1)N(C)c1ccccc1.Cl [Compound 6, N-N′-dimethyl-N′-phenyl-N″-[3-(1-piperidinyl)propoxy]-guanidine hydrochloride]
Ratio of high vigour plants (%) [1]: 36* %

CCCCCCN(OCC(O)CN1CCCCC1)C(N)=O (stereo not shown) [Compound 8, N-hexyl-N-[2-hydroxy-3-(1-piperidinyl)propoxyl]-urea]
Ratio of high vigour plants (%) [1]: 23* %

CN(C)C(=NOCC(O)CN1CCCCC1)Nc1ccccc1.Cl (stereo not shown) [Compound 9, N,N-dimethyl-N′-phenyl-N″-[2-hydroxy-3-(1-piperidinyl)propoxy]-guanidine hydrochloride]
Ratio of high vigour plants (%) [7]: 56* %

Cl.ClC(=NOCCCN1CCCCC1)c1cccs1 [Compound 10, N-[3-(1-piperidinyl)propoxy]-thiophene-2-carboximidoylchloride hydrochloride]
Ratio of high vigour plants (%) [7]: 45* %

Cl.c1ccc(N=C(NOCCCN2CCCCC2)c2ccccc2)cc1 [Compound 11, N-[3-(1-piperidinyl)propoxy]-N′-phenyl-benzamidine hydrochloride]
Ratio of high vigour plants (%) [7]: 53* %

N-[2-hydroxy-3-(1-piperidinyl)propoxy]-ethylurethane [Compound 7]
Ratio of high vigour plants (%) [1]: 24%
